Laboratory results from publication PMC7996536, “Optimization of Tilmicosin-Loaded Nanostructured Lipid Carriers Using Orthogonal Design for Overcoming Oral Administration Obstacle” (Pharmaceutics, 2021).
Converted amounts (≈) assume the structure as drawn. Counter-ions that a name gives are not always drawn. Like-named read-outs stand apart in the source and are kept apart here. One block for each compound: values may come before it.

What was measured:
[1] = tested on: MDCK-chAbcg2/abcb1 monolayers; experiment: Transport mechanism of TMS-NLCs across monolayers (tracers, 4 °C, endocytosis inhibitors)
Description: To investigate the transport mechanism of TMS-NLCs, propranolol (100 µM) and lucifer yellow (225 µM) as the tracers were added to the AP side and co-incubated with TMS-NLCs for 4 h. The tracers that passed through monolayers to the BL side were quantified. The transport experiments of TMS-NLCs across MDCK-chAbcg2/abcb1 monolayers were also conducted at 4 °C. To get further insights into the transcellular transport of TMS-NLCs, the monolayers were pre-incubated with various endocytosis inhibitors on the AP side for 1 h and then co-incubated with TMS-NLCs for 4 h. The determination of TMS in the samples collected from the BL side was analyzed by HPLC.

MDCK cell monolayers = experiment: Permeability of cell monolayers (tracers); format: in vitro ADME, canine; conditions: AP to BL, 4 h, 37 °C, lucifer yellow 225 µM, propranolol 100 µM
Description: (§1) MDCK and MDCK-chAbcg2/Abcb1 cells were seeded on 12-well Transwell® polycarbonate inserts at a density of 2 × 10^5 cells per well to constitute in vitro cell monolayer models. The apical side (AP) of the insert was filled with 0.5 mL medium, and the basolateral (BL) side was filled with 1.5 mL medium. The medium was replaced every two days. It took 5~7 days to form an intact cell monolayer.
(§2) During the cultivation, the integrity of cell monolayers was evaluated by the transepithelial electrical resistance (TEER) values measured with Epithelial Volt-Ohm Meter (Millipore, Burlington, MA, USA). Monolayers with TEER values over 500 and 1700 Ω·cm^2 of MDCK and MDCK-chAbcg2/Abcb1 cells respectively were used for drug transport experiments, and the TEER values were also checked after the transport experiment to guarantee the integrity of cell monolayers. TEER = (Rtotal − Rblank) × A (Ω·cm^2)
(§3) After a week of cultivation, the AP side was filled with 0.5 mL propranolol (100 µM) or lucifer yellow (225 µM) and 1.5 mL of Hank’s solution on the BL side for 4 h at 37 °C. The solution on the BL side was collected for fluorescence analysis. The detection wavelengths were 428/540 nm ([…]) and 290/330 nm (propranolol), respectively. The apparent permeability coefficient (Papp) was calculated according to the following equation [24]:Papp = dQ/(dt * AC0) where dQ/dt is the transport rate in the receiver solution, A is the membrane surface area, and C0 is the initial concentration in the donor compartment.

[2] = tested on: MDCK-chAbcg2/Abcb1 cell monolayers; experiment: Permeability of cell monolayers (tracers); format: in vitro ADME, canine; conditions: AP to BL, 4 h, 37 °C, lucifer yellow 225 µM, propranolol 100 µM
Description: as §1, §2, §3

[3] = Permeability of cell monolayers (tracers); format: in vitro ADME, canine; conditions: dog, 37 °C, lucifer yellow 225 µM, propranolol 100 µM
Description: as §1, §2, §3

[4] = In vitro drug release by the dialysis bag method; format: physicochemical; conditions: 48 h
Description: The in vitro drug release behavior of TMS-NLCs was carried out over 48 h by the dialysis bag method. Briefly, TMS-NLCs or the corresponding active pharmaceutical ingredient (API) of TMS (3 mL, 10 mg/mL) was added into a dialysis bag (MWCO of 100 kD, 16 mm, and 0.79 mL/cm), immersed in the simulated gastric or intestinal juice (500 mL) at 37 °C, and stirred under the magnetic stirrer with 100 rpm. At the set time, the samples (1 mL) were taken out and substituted by the same volume of fresh receptor fluids, and the TMS concentrations were detected by HPLC.
In this study, the concentrations of TMS in various media were detected with HPLC (Thermo U3000, Thermo Fisher Scientific, New York, NY, USA) with a C18 Reverse-phase column (5 µm, 4.6 mm inner diameter × 250 mm length, Agilent, Palo Alto, CA, USA). The mobile phase was acetonitrile–tetrahydrofuran–water–n-dibutylamine phosphate buffer salt solution (12:5.5:80:2.5; v/v). The column temperature was 30 °C, the injection volume was 20 µL, the UV detection wavelength was 291 nm, and the flow rate was 1 mL/min. The samples were filtered through a 0.22 µm filter membrane before HPLC analysis. The concentration of TMS was calculated using the standard curve equation (y = 31.314x − 2.0603, R^2 = 0.9999) for HPLC analysis of TMS, which had the good linear pattern over a range from 1 to 20 µg/mL as reported previously.

chAbcg2/Abcb1 (P-gp) = experiment: Bidirectional transport of API and TMS-NLCs across cell monolayers; format: in vitro ADME, canine; conditions: dog, MDCK-chAbcg2/Abcb1; for Papp A→B at 4 h, 10 µg/mL / Papp B→A at 4 h, 10 µg/mL: 37 °C; for efflux ratio at 4 h, 10 µg/mL: read-out: ER
Description: as §1
(§4) The permeability efficiency was evaluated by comparing the bidirectional transport between API and TMS-NLCs. Briefly, apical-to-basolateral (AP→BL) and basolateral-to-apical (BL→AP) transport across monolayers was conducted by adding 10 µg/mL API or TMS-NLCs to donor compartments and incubating at 37 °C for 4 h. Then, the samples from receiver compartments were taken to analyze TMS concentrations by HPLC.
(§5) TMS is the substrate of glycoprotein (P-gp). To evaluate the inhibition effect of TMS-NLCs on P-gp mediated efflux, cell monolayers were incubated with the P-gp inhibitor verapamil (100 µM) for 1 h, and then, the medium was replaced with a mixture of verapamil and API or TMS-NLCs on one side and co-incubated for 4 h for bidirectional transport assay.
(§6) The efflux ratio (ER) and net efflux ratio (NER) values were obtained from the following equation [27, 28]:ER = Papp(BL→AP)/Papp(AP→BL) NER = ER(MDCK-chAbcg2/Abcb1)/ER(MDCK).

[5] = as above; format: in vitro ADME, canine; conditions: dog, MDCK; for Papp A→B at 4 h, 10 µg/mL / Papp B→A at 4 h, 10 µg/mL: 37 °C; for efflux ratio at 4 h, 10 µg/mL: read-out: ER
Description: as §1, §4, §5, §6

[6] = tested on: MDCK-chAbcg2/Abcb1 cell monolayers; experiment: as above; format: in vitro ADME, canine; conditions: ER(MDCK-chAbcg2/Abcb1)/ER(MDCK)
Description: as §1, §4, §5, §6

[7] = tested on: Streptococcus agalactiae A27; experiment: Microdilution broth MIC; format: cell-based; conditions: S. agalactiae
Description: (§7) Microdilution broth assay was carried out to evaluate the antibacterial activity of API and TMS-NLCs according to the guidelines of the CLSI. The minimal inhibitory concentration (MIC) was determined against 2 strains of Gram-positive bacteria and 2 strains of Gram-negative bacteria. Staphylococcus aureus QWJAB25 and Streptococcus agalactiae A27 were isolated from milk in a scale farm located in Yangzhou, Jiangsu Province in 2019. The Escherichia coli used in this study was ATCC 25922. The Salmonella Typhimurium strain 1344 was donated by Associate Professor Jian Lin from College of Life Sciences, Nanjing Agricultural University.

[8] = tested on: Escherichia coli ATCC 25922; experiment: Microdilution broth MIC; format: cell-based; conditions: ATCC25922, E. coli
Description: as §7

[9] = tested on: Salmonella Typhimurium strain 1344; experiment: Microdilution broth MIC; format: cell-based; conditions: Salmonella enterica; S. Typhimurium
Description: as §7

[10] = tested on: Staphylococcus aureus QWJAB25; experiment: Microdilution broth MIC; format: cell-based; conditions: S. aureus
Description: as §7

MDCK-chAbcg2/Abcb1 cells = experiment: MTT cell viability; format: cell-based, canine; conditions: up to 50 µg/mL, 4 h, Figure 4B
Description: (§8) MTT assay was used to evaluate cell viability. Cells were seeded on 96-well plates 1 × 10^4 cells per well, cultured for 24 h until 90% confluent, and exposed to different concentrations of NLCs for 4 h. Then, the medium was replaced with 20 µL MTT (5 mg/mL) and 180 µL serum-free medium. After incubation for 4 h, the medium containing MTT was substituted with 150 µL DMSO. The absorbance of formazan was measured by a microplate reader (BIO-RAD, Hercules, CA, USA) at 490 nm. Untreated cells were taken as the control. The cytotoxicity was expressed as the cell viability compared with the untreated cells. Similarly, the cytotoxicity of endocytosis inhibitors were also evaluated, and the concentrations of each drug were chosen on the basis of the published literature, and EIPA (50 µM), chlorpromazine (30 µM), dynasore (80 µM), and MβCD (2 mM) were used in the present study.

MDCK cells = experiment: MTT cell viability; format: cell-based, canine; conditions: up to 50 µg/mL, 4 h, Figure 4A
Description: as §8

Compound: lucifer yellow
Papp of tracer co-incubated with TMS-NLCs versus without ([1]; AP side, 4 h, Figure 5A): no significant difference
Papp (MDCK cell monolayers): 0.22 ± 0.06 ×10^−6 cm/s
Papp [2]: 0.13 ± 0.01 ×10^−6 cm/s

Papp of tracer co-incubated with TMS-NLCs versus without [1]: no significant difference
Papp at 4 h, 100 µM ([3]; MDCK, AP to BL): 16.2 ± 0.65 ×10⁻⁶ cm/s
Papp at 4 h, 100 µM ([3]; MDCK-chAbcg2/Abcb1, AP to BL): 17.6 ± 0.64 ×10⁻⁶ cm/s
Compound: CC(C)NCC(O)COc1cccc2ccccc12 (centres unmarked) [Propranolol, propranolol hydrochloride]

in vitro release ([4]; SGF, pH 1.2, 37 °C): ~80%
in vitro release ([4]; SIF, pH 6.8, 37 °C): ~80%
Papp A→B at 4 h, 10 µg/mL (chAbcg2/Abcb1 (P-gp); with verapamil (100 µM)): 0.39 ± 0.04 ×10⁻⁶ cm/s
Papp B→A at 4 h, 10 µg/mL (chAbcg2/Abcb1 (P-gp); with verapamil (100 µM)): 0.39 ± 0.07 ×10⁻⁶ cm/s
efflux ratio at 4 h, 10 µg/mL (chAbcg2/Abcb1 (P-gp); with verapamil (100 µM)): 1
Papp A→B at 4 h, 10 µg/mL (chAbcg2/Abcb1 (P-gp); without verapamil): 0.4 ± 0.02 ×10⁻⁶ cm/s
Papp B→A at 4 h, 10 µg/mL (chAbcg2/Abcb1 (P-gp); without verapamil): 1.06 ± 0.03 ×10⁻⁶ cm/s
efflux ratio at 4 h, 10 µg/mL (chAbcg2/Abcb1 (P-gp); without verapamil): 2.63
Papp A→B at 4 h, 10 µg/mL ([5]; with verapamil (100 µM)): 0.38 ± 0.02 ×10⁻⁶ cm/s
Papp B→A at 4 h, 10 µg/mL ([5]; with verapamil (100 µM)): 0.41 ± 0.04 ×10⁻⁶ cm/s
efflux ratio at 4 h, 10 µg/mL ([5]; with verapamil (100 µM)): 1.06
Papp A→B at 4 h, 10 µg/mL ([5]; without verapamil): 0.42 ± 0.04 ×10⁻⁶ cm/s
Papp B→A at 4 h, 10 µg/mL ([5]; without verapamil): 0.53 ± 0.02 ×10⁻⁶ cm/s
efflux ratio at 4 h, 10 µg/mL ([5]; without verapamil): 1.27
NER ([6]; with verapamil (100 µM)): 0.94
NER ([6]; without verapamil): 2.07
MIC [7]: 16 µg/mL (≈ 18.4 µM)
MIC [8]: 16 µg/mL (≈ 18.4 µM)
MIC [9]: 16 µg/mL (≈ 18.4 µM)
MIC [10]: < 0.5 µg/mL
Papp at 4 °C [1]: under the detection limit
Compound: CC[C@H]1OC(=O)C[C@@H](O)[C@H](C)[C@@H](O[C@@H]2O[C@H](C)[C@@H](O)[C@H](N(C)C)[C@H]2O)[C@@H](CCN2C[C@H](C)C[C@H](C)C2)C[C@@H](C)C(=O)/C=C/C(C)=C/[C@@H]1CO[C@@H]1O[C@H](C)[C@@H](O)[C@@H](OC)[C@H]1OC [API, Tilmicosin]
cell viability compared to untreated cells (MDCK-chAbcg2/Abcb1 cells): not significantly decreased
cell viability compared to untreated cells (MDCK cells): not significantly decreased
